Results: patent US12492173B2, “Herbicidal substituted N-tetrazolyl aryl carboxamides” (Bayer Aktiengesellschaft, priority 2019, dated 2025)

What follows are compounds tested on Polygonum convolvulus (assay: Pre-emergence herbicidal action, POLCO). Settings: dosage 320 g/ha, scored visually after 3 weeks vs untreated controls (100% = plants have died).
Format: in vivo
Method in brief: (§1)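 Visual scoring after 3 weeks in the greenhouse, relative to untreated pots, gave percent activity, where 100% means dead plants and 0% equals controls. Treatment was a pre-emergence soil-surface spray of WP or EC formulations in water (600 to 800 l/ha, 0.2% wetting agent) over seeds covered in sandy loam.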
With `CCn1nnnc1NC(=O)c1ccc(C(F)(F)F)c(CS(=O)(=O)CC)c1Br` [Example 2-385] the “herbicidal activity POLCO” value was 100%.
In the case of `Cn1nnnc1NC(=O)c1ccc(C(F)(F)F)c(CSCC2CC2)c1Cl` [Example 1-314], the “herbicidal activity POLCO” value was 100%.
`CCn1nnnc1NC(=O)c1ccc(C(F)(F)F)c(C[S+](C)[O-])c1Cl` (centres unmarked) [Example 2-297] was tested, and the “herbicidal activity POLCO” value was 80%.
In the case of `CCSCc1c(C(F)(F)F)ccc(C(=O)Nc2nnnn2CC)c1Cl` [Example 2-299], the “herbicidal activity POLCO” value was 90%.
With `CCn1nnnc1NC(=O)c1ccc(C(F)(F)F)c(C[S+](C)[O-])c1SC` (centres unmarked) [Example 2-162] the “herbicidal activity POLCO” value was 100%.
For `Cn1nnnc1NC(=O)c1ccc(C(F)(F)F)c(CS(C)(=O)=O)c1C(F)(F)C(F)(F)F` [Example 1-552], the “herbicidal activity POLCO” value was 90%.
In the case of `Cn1nnnc1NC(=O)c1ccc(C(F)(F)F)c(CSC2CC2)c1Cl` [Example 1-302], the “herbicidal activity POLCO” value was 100%.
For `CCSCc1c(C(F)F)ccc(C(=O)Nc2nnnn2CC)c1Cl` [Example 2-323], the “herbicidal activity POLCO” value was 100%.

The compounds below were run on Polygonum convolvulus (assay: Post-emergence herbicidal action, POLCO). Settings: Dosage 80 g/ha.
Format: in vivo
Method in brief: (§2)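 Sandy loam, greenhouse; one-leaf stage (2–3 wk after sowing); foliar spray of WP or EC, 600–800 l/ha water + 0.2% wetter; visual rating at ~3 wk vs untreated, % effect.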
With `CCn1nnnc1NC(=O)c1ccc(C(F)(F)F)c(C[S+](C)[O-])c1SC` (centres unmarked) [Example 2-162] the “herbicidal action POLCO” value was 90.
`Cn1nnnc1NC(=O)c1ccc(C(F)(F)F)c(CS(C)(=O)=O)c1C(F)(F)C(F)(F)F` [Example 1-552] was tested, and the “herbicidal action POLCO” value was 90.

Same assay, conditions: post-emergence, dosage 80 g/ha
For `CCn1nnnc1NC(=O)c1ccc(C(F)(F)F)c(CS(=O)(=O)CC)c1Br` [Example 2-385], the “herbicidal action POLCO” value was 90%.
With `Cn1nnnc1NC(=O)c1ccc(C(F)(F)F)c(CSCC2CC2)c1Cl` [Example 1-314] the “herbicidal action POLCO” value was 100%.
With `CCn1nnnc1NC(=O)c1ccc(C(F)(F)F)c(C[S+](C)[O-])c1Cl` (centres unmarked) [Example 2-297] the “herbicidal action POLCO” value was 90%.
With `CCSCc1c(C(F)(F)F)ccc(C(=O)Nc2nnnn2CC)c1Cl` [Example 2-299] the “herbicidal action POLCO” value was 90%.
`Cn1nnnc1NC(=O)c1ccc(C(F)(F)F)c(CSC2CC2)c1Cl` [Example 1-302] was tested, and the “herbicidal action POLCO” value was 100%.
`CCSCc1c(C(F)F)ccc(C(=O)Nc2nnnn2CC)c1Cl` [Example 2-323] was tested, and the “herbicidal action POLCO” value was 100%.

These compounds were tested on Amaranthus retroflexus (assay: Pre-emergence herbicidal action, AMARE). Settings: dosage 320 g/ha, scored visually after 3 weeks vs untreated controls (100% = plants have died).
Format: in vivo
Method in brief: as §1
In the case of `CCn1nnnc1NC(=O)c1ccc(C(F)(F)F)c(CS(=O)(=O)CC)c1Br` [Example 2-385], the “herbicidal activity AMARE” value was 100%.
With `Cn1nnnc1NC(=O)c1ccc(C(F)(F)F)c(CSCC2CC2)c1Cl` [Example 1-314] the “herbicidal activity AMARE” value was 100%.
In the case of `CCn1nnnc1NC(=O)c1ccc(C(F)(F)F)c(C[S+](C)[O-])c1Cl` (centres unmarked) [Example 2-297], the “herbicidal activity AMARE” value was 100%.
`CCSCc1c(C(F)(F)F)ccc(C(=O)Nc2nnnn2CC)c1Cl` [Example 2-299] was tested, and the “herbicidal activity AMARE” value was 100%.
`CCn1nnnc1NC(=O)c1ccc(C(F)(F)F)c(C[S+](C)[O-])c1SC` (centres unmarked) [Example 2-162] was tested, and the “herbicidal activity AMARE” value was 100%.
With `Cn1nnnc1NC(=O)c1ccc(C(F)(F)F)c(CS(C)(=O)=O)c1C(F)(F)C(F)(F)F` [Example 1-552] the “herbicidal activity AMARE” value was 100%.
For `Cn1nnnc1NC(=O)c1ccc(C(F)(F)F)c(CSC2CC2)c1Cl` [Example 1-302], the “herbicidal activity AMARE” value was 100%.
For `CCSCc1c(C(F)F)ccc(C(=O)Nc2nnnn2CC)c1Cl` [Example 2-323], the “herbicidal activity AMARE” value was 100%.

These compounds were tested on Stellaria media (assay: Post-emergence herbicidal action, STEME). Settings: Dosage 80 g/ha.
Format: in vivo
Parameters: key: % herbicidal action vs untreated; 100 = plants died, 0 = like control
Method in brief: as §2
For `CCn1nnnc1NC(=O)c1ccc(C(F)(F)F)c(C[S+](C)[O-])c1SC` (centres unmarked) [Example 2-162], the “herbicidal action STEME” value was 100.
In the case of `Cn1nnnc1NC(=O)c1ccc(C(F)(F)F)c(CS(C)(=O)=O)c1C(F)(F)C(F)(F)F` [Example 1-552], the “herbicidal action STEME” value was 90.

Same assay, conditions: post-emergence, dosage 80 g/ha
In the case of `CCn1nnnc1NC(=O)c1ccc(C(F)(F)F)c(CS(=O)(=O)CC)c1Br` [Example 2-385], the “herbicidal action STEME” value was 100%.
In the case of `Cn1nnnc1NC(=O)c1ccc(C(F)(F)F)c(CSCC2CC2)c1Cl` [Example 1-314], the “herbicidal action STEME” value was 100%.
With `CCn1nnnc1NC(=O)c1ccc(C(F)(F)F)c(C[S+](C)[O-])c1Cl` (centres unmarked) [Example 2-297] the “herbicidal action STEME” value was 100%.
For `CCSCc1c(C(F)(F)F)ccc(C(=O)Nc2nnnn2CC)c1Cl` [Example 2-299], the “herbicidal action STEME” value was 100%.
`Cn1nnnc1NC(=O)c1ccc(C(F)(F)F)c(CSC2CC2)c1Cl` [Example 1-302] was tested, and the “herbicidal action STEME” value was 100%.
For `CCSCc1c(C(F)F)ccc(C(=O)Nc2nnnn2CC)c1Cl` [Example 2-323], the “herbicidal action STEME” value was 100%.

These compounds were tested on Avena fatua (assay: Post-emergence herbicidal action, AVEFA). Settings: Dosage 80 g/ha.
Format: in vivo
Parameters: key: % herbicidal action vs untreated; 100 = plants died, 0 = like control
Method in brief: as §2
With `CCn1nnnc1NC(=O)c1ccc(C(F)(F)F)c(C[S+](C)[O-])c1SC` (centres unmarked) [Example 2-162] the “herbicidal action AVEFA” value was 100.
In the case of `Cn1nnnc1NC(=O)c1ccc(C(F)(F)F)c(CS(C)(=O)=O)c1C(F)(F)C(F)(F)F` [Example 1-552], the “herbicidal action AVEFA” value was 90.

Same assay, conditions: post-emergence, dosage 80 g/ha
For `CCn1nnnc1NC(=O)c1ccc(C(F)(F)F)c(CS(=O)(=O)CC)c1Br` [Example 2-385], the “herbicidal action AVEFA” value was 90%.
For `Cn1nnnc1NC(=O)c1ccc(C(F)(F)F)c(CSCC2CC2)c1Cl` [Example 1-314], the “herbicidal action AVEFA” value was 100%.
With `CCn1nnnc1NC(=O)c1ccc(C(F)(F)F)c(C[S+](C)[O-])c1Cl` (centres unmarked) [Example 2-297] the “herbicidal action AVEFA” value was 100%.
`CCSCc1c(C(F)(F)F)ccc(C(=O)Nc2nnnn2CC)c1Cl` [Example 2-299] was tested, and the “herbicidal action AVEFA” value was 100%.
In the case of `Cn1nnnc1NC(=O)c1ccc(C(F)(F)F)c(CSC2CC2)c1Cl` [Example 1-302], the “herbicidal action AVEFA” value was 100%.
With `CCSCc1c(C(F)F)ccc(C(=O)Nc2nnnn2CC)c1Cl` [Example 2-323] the “herbicidal action AVEFA” value was 100%.

These compounds were tested on Pharbitis purpurea (assay: Pre-emergence herbicidal action, PHBPU). Settings: dosage 320 g/ha, scored visually after 3 weeks vs untreated controls (100% = plants have died).
Format: in vivo
Method in brief: as §1
With `CCn1nnnc1NC(=O)c1ccc(C(F)(F)F)c(CS(=O)(=O)CC)c1Br` [Example 2-385] the “herbicidal activity PHBPU” value was 80%.
For `Cn1nnnc1NC(=O)c1ccc(C(F)(F)F)c(CSCC2CC2)c1Cl` [Example 1-314], the “herbicidal activity PHBPU” value was 90%.
`CCn1nnnc1NC(=O)c1ccc(C(F)(F)F)c(C[S+](C)[O-])c1Cl` (centres unmarked) [Example 2-297] was tested, and the “herbicidal activity PHBPU” value was 90%.
With `CCSCc1c(C(F)(F)F)ccc(C(=O)Nc2nnnn2CC)c1Cl` [Example 2-299] the “herbicidal activity PHBPU” value was 90%.
For `CCn1nnnc1NC(=O)c1ccc(C(F)(F)F)c(C[S+](C)[O-])c1SC` (centres unmarked) [Example 2-162], the “herbicidal activity PHBPU” value was 90%.
For `Cn1nnnc1NC(=O)c1ccc(C(F)(F)F)c(CS(C)(=O)=O)c1C(F)(F)C(F)(F)F` [Example 1-552], the “herbicidal activity PHBPU” value was 90%.
For `Cn1nnnc1NC(=O)c1ccc(C(F)(F)F)c(CSC2CC2)c1Cl` [Example 1-302], the “herbicidal activity PHBPU” value was 100%.
For `CCSCc1c(C(F)F)ccc(C(=O)Nc2nnnn2CC)c1Cl` [Example 2-323], the “herbicidal activity PHBPU” value was 90%.

The compounds below were run on Matricaria inodora (assay: Post-emergence herbicidal action, MATIN). Settings: Dosage 80 g/ha.
Format: in vivo
Parameters: key: % herbicidal action vs untreated; 100 = plants died, 0 = like control
Method in brief: as §2
With `CCn1nnnc1NC(=O)c1ccc(C(F)(F)F)c(C[S+](C)[O-])c1SC` (centres unmarked) [Example 2-162] the “herbicidal action MATIN” value was 100.
In the case of `Cn1nnnc1NC(=O)c1ccc(C(F)(F)F)c(CS(C)(=O)=O)c1C(F)(F)C(F)(F)F` [Example 1-552], the “herbicidal action MATIN” value was 90.

Same assay, conditions: post-emergence, dosage 80 g/ha
`CCn1nnnc1NC(=O)c1ccc(C(F)(F)F)c(CS(=O)(=O)CC)c1Br` [Example 2-385] was tested, and the “herbicidal action MATIN” value was 100%.
`Cn1nnnc1NC(=O)c1ccc(C(F)(F)F)c(CSCC2CC2)c1Cl` [Example 1-314] was tested, and the “herbicidal action MATIN” value was 100%.
With `CCn1nnnc1NC(=O)c1ccc(C(F)(F)F)c(C[S+](C)[O-])c1Cl` (centres unmarked) [Example 2-297] the “herbicidal action MATIN” value was 100%.
With `CCSCc1c(C(F)(F)F)ccc(C(=O)Nc2nnnn2CC)c1Cl` [Example 2-299] the “herbicidal action MATIN” value was 100%.
For `Cn1nnnc1NC(=O)c1ccc(C(F)(F)F)c(CSC2CC2)c1Cl` [Example 1-302], the “herbicidal action MATIN” value was 90%.
In the case of `CCSCc1c(C(F)F)ccc(C(=O)Nc2nnnn2CC)c1Cl` [Example 2-323], the “herbicidal action MATIN” value was 90%.
